From the OligoGym collection
After the bases stand the sugars from the 5' end (letter, count) and the backbone: PS all phosphorothioate, else s phosphorothioate and o phosphodiester by linkage. Methylation of C is not given here. l = locked nucleic acid (LNA); d = 2'-deoxy (DNA)

Target: SNHG14
Conditions: ASO
[1] = Mouse Primary Neuronal Cell, 0.005 µM

Sequence	target mRNA inhibition (Human Neuronal Cell, 0.2 µM)	target mRNA inhibition (Human Neuronal Cell, 1 µM)	target mRNA inhibition (Human Neuronal Cell, 7.5 µM)	also measured
GAATTTCAACTACTAT (sugars l2 d10 l4, PS)	34%	45%		
GATCATTCTCAACAATT (sugars l1 d1 l3 d7 l5, PS)			22%	
GATCATTCTCAACAATT (sugars l2 d1 l2 d7 l5, PS)			25%	
GATCATTCTCAACAATT (sugars l5 d7 l1 d2 l2, PS)			34%	
GATCATTCTCAACAATTA (sugars l2 d1 l2 d10 l3, PS)			57%	
GATCATTCTCAACAATTA (sugars l2 d3 l1 d6 l6, PS)			33%	
GATCATTCTCAACAATTA (sugars llddllddddddllddll, PS)			49%	
GATCATTCTCAACAATTAA (sugars lddlldddddddlddllll, PS)			55%	
GATCATTCTCAACAATTAA (sugars lldddlddddddlldllll, PS)			39%	
GATCATTCTCAACAATTAA (sugars lllllddddddddldldll, PS)			5%	
GCAACATTATTAACCACCT (sugars lddddlddddddldddlll, PS)			42%	
GCAACATTATTAACCACCT (sugars ldlddddddddddddldll, PS)			58%	
GCAACATTATTAACCACCT (sugars lldddlddddddlddddll, PS)			45%	
GCACATTCTTTCTATAC (sugars l2 d2 l1 d9 l3, PS)			62%	
GCACATTCTTTCTATAC (sugars l2 d9 l1 d3 l2, PS)			48%	
GCACATTCTTTCTATAC (sugars l3 d11 l3, PS)	39%	59%		
GCACATTCTTTCTATAC (sugars ldlldddddddlddlll, PS)			51%	
GCACATTCTTTCTATAC (sugars ldlllddddddllddll, PS)			34%	
GCACATTCTTTCTATACCT (sugars l1 d3 l1 d12 l2, PS)			48%	
GCATTCAACCCTAATC (sugars l4 d10 l2, PS)	46%	47%		
GCCACAACATCTATTT (sugars l4 d10 l2, PS)	37%	38%		
GTACTTACACATCTAT (sugars l2 d10 l4, PS)	45%	26%		

Sequence	target mRNA inhibition (Human Neuronal Cell, 0.2 µM)	target mRNA inhibition (Human Neuronal Cell, 1 µM)	target mRNA inhibition (Human Neuronal Cell, 7.5 µM)	also measured
GTATTTACTCTTTACCT (sugars l3 d11 l3, PS)	41%	35%		
GTTCTACTATACTTTC (sugars l4 d10 l2, PS)	61%	66%		
GTTCTACTATACTTTCCT (sugars l1 d2 l1 d11 l3, PS)			62%	
GTTCTACTATACTTTCCT (sugars l1 d4 l1 d9 l3, PS)			57%	
GTTCTACTATACTTTCCT (sugars lddldddddddddlddll, PS)			58%	
GTTCTACTATACTTTCCT (sugars lddldlddddddddddll, PS)			56%	
GTTCTACTATACTTTCCT (sugars lddldldddddddlddll, PS)			55%	
GTTCTACTATACTTTCCTC (sugars lddddddddddddldldll, PS)			56%	
GTTTATACCCTTTCCAAT (sugars ldldldddddddddldll, PS)			57%	
GTTTCCATCTACTATTA (sugars l2 d11 l4, PS)	60%	75%		
GTTTCCATCTACTATTAA (sugars llldldddddddllddll, PS)			28%	
GTTTCCATCTACTATTAAT (sugars lddddlddddddllddlll, PS)			59%	
GTTTCCATCTACTATTAAT (sugars ldldllddddddddddlll, PS)			59%	
TAAAATTATTTATACACCA (sugars l2 d3 l1 d7 l6, PS)			47%	
TAAAATTATTTATACACCA (sugars l5 d8 l2 d1 l3, PS)			65%	
TAAAATTATTTATACACCAT (sugars ldddlllddddddllldlll, PS)			34%	
TAAAATTATTTATACACCAT (sugars llldldldddddddlldlll, PS)			21%	
TAAAATTATTTATACACCAT (sugars lllldllddddddlllldll, PS)			-13%	
TAAAGATCCCATCACTC (sugars l3 d11 l3, PS)	44%	50%		
TAATCCTATTCCAACT (sugars l3 d10 l3, PS)	16%	17%		
TACACAATCAACAACAAAT (sugars l4 d13 l2, PS)	25%	41%		
TACACTTAATTATACTTC (sugars l2 d12 l4, PS)	26%	42%		

Sequence	target mRNA inhibition (Human Neuronal Cell, 0.2 µM)	target mRNA inhibition (Human Neuronal Cell, 1 µM)	target mRNA inhibition (Human Neuronal Cell, 7.5 µM)	also measured
TACACTTAATTATACTTCCA (sugars ldlddllddddddlddddll, PS)			59%	
TACACTTAATTATACTTCCA (sugars lldldlddddddddddddll, PS)			60%	
TACATCTCATACTTGCT (sugars l2 d11 l4, PS)	-18%	2%		target mRNA inhibition (Human Neuronal Cell, 5 µM): 18%; target mRNA inhibition [1]: 95%
TACCTACATCTCATACT (sugars l2 d13 l2, PS)	-1%	0%		target mRNA inhibition (Human Neuronal Cell, 5 µM): 11%; target mRNA inhibition [1]: 78.6%
TACCTACATCTCATACTT (sugars l4 d12 l2, PS)	-19%	3%		target mRNA inhibition (Human Neuronal Cell, 5 µM): 7%; target mRNA inhibition [1]: 94.8%
TACTATCTTTGACATTC (sugars l4 d11 l2, PS)	48%	59%		
TACTCTGCAATACACC (sugars l1 d1 l1 d10 l3, PS)			60%	
TACTCTGCAATACACC (sugars l1 d1 l1 d11 l2, PS)			50%	
TACTCTGCAATACACC (sugars l2 d2 l1 d9 l2, PS)			61%	
TACTCTGCAATACACC (sugars l2 d12 l2, PS)			59%	
TACTCTGCAATACACC (sugars l3 d11 l2, PS)			55%	
TACTCTGCAATACACCA (sugars l1 d1 l1 d12 l2, PS)			55%	
TACTCTGCAATACACCA (sugars l1 d10 l1 d3 l2, PS)			59%	
TACTCTGCAATACACCA (sugars l2 d10 l2 d1 l2, PS)			60%	
TATACACCATCATTATA (sugars l4 d11 l2, PS)	41%	60%		
TATACCTTTCTTTAACCCTT (sugars ldddddldddddddddldll, PS)			66%	
TATAGACCCAAACTAT (sugars l3 d10 l3, PS)	15%	26%		
TATCTCATTTACATTATT (sugars l4 d12 l2, PS)	27%	43%		
TATTCTTACCGTCTTTA (sugars l3 d11 l3, PS)	40%	63%		
TATTGATTCAATTCCCT (sugars l2 d2 l1 d10 l2, PS)			55%	
TATTGATTCAATTCCCT (sugars lldldddddddddldll, PS)			69%	
TCACACCTATTATATAA (sugars l3 d11 l3, PS)	11%	16%		

Sequence	target mRNA inhibition (Human Neuronal Cell, 0.2 µM)	target mRNA inhibition (Human Neuronal Cell, 1 µM)	target mRNA inhibition (Human Neuronal Cell, 7.5 µM)	also measured
TCACTGTTCTGACTTT (sugars l3 d10 l3, PS)	19%	18%		target mRNA inhibition (Human Neuronal Cell, 5 µM): 28%
TCACTTTCCAGATATCA (sugars l2 d13 l2, PS)	23%	-6%		target mRNA inhibition (Human Neuronal Cell, 5 µM): 17%; target mRNA inhibition [1]: 46.6%
TCACTTTCCAGATATCA (sugars l4 d11 l2, PS)	17%	5%		target mRNA inhibition (Human Neuronal Cell, 5 µM): 15%; target mRNA inhibition [1]: 92%
TCATATTGAACCAATT (sugars l4 d10 l2, PS)	59%	71%		
TCATCCCTCCAAGAAA (sugars l4 d10 l2, PS)	-12%	-17%		target mRNA inhibition (Human Neuronal Cell, 5 µM): -46%
TCCATTTATTTCCATTTAT (sugars ldldlldddddddldddll, PS)			55%	
TCCATTTATTTCCATTTATT (sugars l2 d11 l2 d3 l2, PS)			58%	
TCTCAAAGATCATTCT (sugars l4 d10 l2, PS)	54%	62%		
TCTCAAAGATCATTCTC (sugars l3 d11 l3, PS)	57%	63%		
TCTCAGCTTCTTCAAAT (sugars l2 d12 l3, PS)	26%	23%		
TCTCCAACATAGATCCT (sugars l4 d11 l2, PS)	33%	46%		
TCTGTATACACCATCCC (sugars l1 d11 l1 d2 l2, PS)			54%	
TCTGTATACACCATCCC (sugars l2 d10 l1 d2 l2, PS)			61%	
TCTTTCCATTTATTTCCATT (sugars l2 d3 l1 d11 l3, PS)			56%	
TCTTTGACATTCCATCTC (sugars l4 d12 l2, PS)	49%	56%		
TGAAAATCTCAACTACCAT (sugars l1 d3 l2 d10 l3, PS)			43%	
TGAAAATCTCAACTACCAT (sugars l1 d11 l1 d2 l4, PS)			24%	
TGAAAATCTCAACTACCAT (sugars lddldlddddddldddlll, PS)			19%	
TGAAACATTCTTCCCAC (sugars l2 d12 l3, PS)	11%	13%		
TGCAAATACCTCTTCA (sugars l4 d10 l2, PS)	64%	69%		
TGTACTTACACATCTA (sugars l3 d10 l3, PS)	42%	34%		
